Data reported in patent US20250129103A1, “METHODS FOR TREATMENT OF CANCER” (Frontier Medicines Corporation, priority 2022, published 2025).
Converted amounts (≈) assume the structure as drawn.

Columns and labels:
[1] = target: KRAS G12C (GMPPNP-loaded) and cRAF (Ras-binding domain) interaction (Homo sapiens (Human), UniProt P01116, C118S/C51S/C80L/G12C); assay: Inhibition of KRAS G12C and cRAF binding (AlphaScreen); settings: KRAS G12C loaded with GMPPNP, cRaf RBD, 2 hours preincubation; read-out: Raf-1 RBD K-Ras IC50
KRAS G12C (GMPPNP-loaded) and cRAF (Ras-binding domain) interaction, sequence (P01116 other isoform, or with tags, fused parts or gaps G12C/C51S/C80L/C118S): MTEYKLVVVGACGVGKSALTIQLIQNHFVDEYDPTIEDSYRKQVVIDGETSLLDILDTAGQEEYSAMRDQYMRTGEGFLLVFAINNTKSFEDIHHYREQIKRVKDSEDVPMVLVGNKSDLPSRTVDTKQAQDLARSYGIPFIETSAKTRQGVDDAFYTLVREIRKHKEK
In short: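 AlphaScreen readout (680 nm excitation, 570 nm emission) of RBD binding after a 60-90 min bead step at room temperature. This step follows 2 h compound exposure of GMPPNP-preloaded KRAS G12C in Hepes pH 7.4 buffer with MgCl2 and 10 μM GMPPNP.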

[2] = target: KRAS G12C (GMPPNP-loaded) and PI3Ka (Ras-binding domain) interaction (Homo sapiens (Human), UniProt P01116, C118S/C51S/C80L/G12C); assay: Inhibition of KRAS G12C and PI3Ka binding (AlphaScreen); settings: KRAS G12C loaded with GMPPNP, PI3Ka RBD, 2 hours preincubation; read-out: PI3K RBD K-Ras IC50
KRAS G12C (GMPPNP-loaded) and PI3Ka (Ras-binding domain) interaction, sequence (P01116 other isoform, or with tags, fused parts or gaps G12C/C51S/C80L/C118S): as above
In short: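 Biotin-AviTag Cys-light KRAS G12C (aa 1-169, C51S/C80L/C118S), GMPPNP-loaded, 1.5 nM, preincubated 2 h with compound, then His-tagged PI3Ka RBD (aa 157-300, 100 nM) plus AlphaScreen beads added for 60-90 min, RT. Buffer Hepes pH 7.4, 10 μM GMPPNP, 2% DMSO; 10-point 1:3 from 50 μM; 4-parameter IC50.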

[3] = Determination of logD (1-octanol / phosphate buffer pH 7.4); format: physicochemical; settings: 1-octanol/phosphate buffer, pH 7.4, pH 7.4, 1-octanol/phosphate buffer; read-out: Log D, pH 7.4
In short: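 Each phase analysed by LCMS after 1 h shaking at 800 rpm and centrifugation, room temperature. Phases were mutually saturated 1-octanol and 100 mM phosphate buffer at pH 7.4. LogD derived from the phase concentrations.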

[4] = Determination of kinetic solubility (pH 7.4); format: physicochemical; settings: phosphate buffer, pH 7.4, aqueous buffer, kinetic from dmso stock, 50 mM phosphate buffer pH 7.4, read-out: Ksol, pH 7.4
In short: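 Solubility taken from filtrate peak areas on a calibration curve (HPLC-UV, LC-MS/MS). Before filtration and centrifugation, compound was shaken for 2 h at room temperature in pH 7.4 50 mM phosphate buffer.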

Compound	IC50 [1]	IC50 [2]	logD [3]	solubility kinetic at 2 h [4]
N#CC[C@H]1CN(c2nc(OC[C@@]34CCCN3C[C@H](F)C4)nc3c(F)c(-c4cccc5cccc(Cl)c45)ncc23)CCN1C(=O)/C=C/CN1CC2CC(C1)O2 [Example 86, 2-((2S)-1-((E)-4-(6-oxa-3-azabicyclo[3.1.1]heptan-3-yl)but-2-enoyl)-4-(7-(8-chloronaphthalen-1-yl)-8-fluoro-2-(((2R,7aS)-2-fluorohexahydro-1H-pyrrolizin-7a-yl)methoxy)pyrido[4,3-d]pyrimidin-4-yl)piperazin-2-yl)acetonitrile]	< 10 nM	< 10 nM	2.9	96.6 µg/mL (≈ 128 µM)
N#CC[C@H]1CN(c2nc(OC[C@@]34CCCN3C[C@H](F)C4)nc3c(F)c(-c4cccc5ccc(F)c(Cl)c45)ncc23)CCN1C(=O)/C=C/CN1CCOCC1 [Compound 53]	< 10 nM	< 10 nM	2.82	111 µg/mL (≈ 146 µM)
CCc1noc(/C=C/C(=O)N2CCN(c3nc(OCC45CCCN4CCC5)nc4c3CCN(c3cccc5cccc(Cl)c35)C4)C[C@@H]2CC#N)n1 [Compound 25]	> 500 nM	≥ 500 nM	4.9	0.01 µg/mL (≈ 0.0141 µM)
N#CC[C@H]1CN(c2nc(OC[C@@]34CCCN3C[C@H](F)C4)nc3c(F)c(-c4cccc5ccc(F)c(F)c45)ncc23)CCN1C(=O)/C=C/CN1CCOCC1 [Example 83, 2-((S)-4-(7-(7,8-difluoronaphthalen-1-yl)-8-fluoro-2-(((2R,7aS)-2-fluorotetrahydro-1H-pyrrolizin-7a(5H)-yl)methoxy)pyrido[4,3-d]pyrimidin-4-yl)-1-((E)-4-morpholinobut-2-enoyl)piperazin-2-yl)acetonitrile]	< 10 nM	< 10 nM	2.98	93.4 µg/mL (≈ 125 µM)
CC(C)c1noc(/C=C/C(=O)N2CCN(c3nc(OCC45CCCN4CCC5)nc4c3CNC(c3cccc5cccc(Cl)c35)C4F)C[C@@H]2CC#N)n1 (stereo partly shown) [Compound 124]	10 to 100 nM	10 to 100 nM	4.21	0.23 µg/mL (≈ 0.311 µM)
CO[C@@H]1CCN(C/C=C/C(=O)N2CCN(c3nc(OC[C@@]45CCCN4C[C@H](F)C5)nc4c(F)c(-c5cccc6cccc(Cl)c56)ncc34)C[C@@H]2CC#N)C1 [Compound 191]	< 10 nM	< 10 nM	3.18	94.9 µg/mL (≈ 125 µM)
N#CC[C@H]1CN(c2nc(OC[C@@]34CCCN3C[C@H](F)C4)nc3c(F)c(-c4cccc5cccc(Cl)c45)ncc23)CCN1C(=O)/C=C/CN1[C@@H]2CC[C@H]1COC2 [Example 87, 2-((S)-1-((E)-4-((1R,5S)-3-oxa-8-azabicyclo[3.2.1]octan-8-yl)but-2-enoyl)-4-(7-(8-chloronaphthalen-1-yl)-8-fluoro-2-(((2R,7aS)-2-fluorohexahydro-1H-pyrrolizin-7a-yl)methoxy)pyrido[4,3-d]pyrimidin-4-yl)piperazin-2-yl)acetonitrile]	< 10 nM	< 10 nM	3.27	69.8 µg/mL (≈ 90.7 µM)
N#CC[C@H]1CN(c2nc(OC[C@@]34CCCN3C[C@H](F)C4)nc3c(F)c(-c4cccc(Cl)c4C4CC4)ncc23)CCN1C(=O)/C=C/CN1CC2CC(C1)O2 [Compound 244]	< 10 nM	10 to 100 nM	3.13	121 µg/mL (≈ 163 µM)
N#CC[C@H]1CN(c2nc(OC[C@@]34CCCN3C[C@H](F)C4)nc3c(F)c(-c4cccc(Cl)c4C(F)(F)F)ncc23)CCN1C(=O)/C=C/CN1[C@@H]2CC[C@H]1COC2 [Compound 111, 2-((S)-1-((E)-4-((1R,5S)-3-oxa-8-azabicyclo[3.2.1]octan-8-yl)but-2-enoyl)-4-(7-(3-chloro-2-(trifluoromethyl)phenyl)-8-fluoro-2-(((2R,7aS)-2-fluorotetrahydro-1H-pyrrolizin-7a(5H)-yl)methoxy)pyrido[4,3-d]pyrimidin-4-yl)piperazin-2-yl)acetonitrile]	< 10 nM	< 10 nM	3.23	133 µg/mL (≈ 169 µM)
C[C@@H]1CN(C/C=C/C(=O)N2CCN(c3nc(OC[C@@]45CCCN4C[C@H](F)C5)nc4c(F)c(-c5cccc6cccc(Cl)c56)ncc34)C[C@@H]2CC#N)C[C@H](C)O1 [Compound 186]	10 to 100 nM	10 to 100 nM	3.54	89 µg/mL (≈ 115 µM)
N#CC[C@H]1CN(c2nc(OC[C@@]34CCCN3C[C@H](F)C4)nc3c(F)c(-c4cccc5ccc(F)c(Cl)c45)ncc23)CCN1C(=O)/C=C/CN1[C@@H]2CC[C@H]1COC2 [Example 79, 2-((S)-1-((E)-4-((1R,5S)-3-oxa-8-azabicyclo[3.2.1]octan-8-yl)but-2-enoyl)-4-(7-(8-chloro-7-fluoronaphthalen-1-yl)-8-fluoro-2-(((2R,7aS)-2-fluorotetrahydro-1H-pyrrolizin-7a(5H)-yl)methoxy)pyrido[4,3-d]pyrimidin-4-yl)piperazin-2-yl)acetonitrile]	< 10 nM	< 10 nM	3.53	155 µg/mL (≈ 197 µM)
N#CC[C@H]1CN(c2nc(OC[C@@]34CCCN3C[C@H](F)C4)nc3c(F)c(-c4cccc5cccc(Cl)c45)ncc23)CCN1C(=O)/C=C/CN1C2COCC1C2 [Compound 189]	< 10 nM	< 10 nM	2.96	109 µg/mL (≈ 144 µM)
CO[C@H]1CCN(C/C=C/C(=O)N2CCN(c3nc(OC[C@@]45CCCN4C[C@H](F)C5)nc4c(F)c(-c5cccc6ccc(F)c(Cl)c56)ncc34)C[C@@H]2CC#N)C1 [Example 80, 2-((S)-4-(7-(8-chloro-7-fluoronaphthalen-1-yl)-8-fluoro-2-(((2R,7aS)-2-fluorotetrahydro-1H-pyrrolizin-7a(5H)-yl)methoxy)pyrido[4,3-d]pyrimidin-4-yl)-1-((E)-4-((S)-3-methoxypyrrolidin-1-yl)but-2-enoyl)piperazin-2-yl)acetonitrile]	< 10 nM	< 10 nM	3.2	146 µg/mL (≈ 189 µM)
CC(C)(C)c1noc(/C=C/C(=O)N2CCN(c3nc(OCC45CCCN4CCC5)nc4c3CCN(c3cccc5cccc(Cl)c35)C4)C[C@@H]2CC#N)n1 [Compound 30]	10 to 100 nM	10 to 100 nM	3.09	2.33 µg/mL (≈ 3.16 µM)
N#CC[C@H]1CN(c2nc(OC[C@@]34CCCN3C[C@H](F)C4)nc3c(F)c(-c4cccc5cccc(Cl)c45)ncc23)CCN1C(=O)/C=C/CN1C[C@H]2COC[C@H]2C1 [Compound 228]	< 10 nM	< 10 nM	3.08	94.8 µg/mL (≈ 123 µM)
Cc1nccc(/C=C/C(=O)N2CCN(c3nc(OC[C@@]45CCCN4C[C@H](F)C5)nc4c(F)c(-c5cccc6cccc(Cl)c56)ncc34)C[C@@H]2CC#N)n1 [Compound 140]	< 10 nM	< 10 nM	3.45	1.86 µg/mL (≈ 2.53 µM)
N#CC[C@H]1CN(c2nc(OC[C@@]34CCCN3C[C@H](F)C4)nc3c(F)c(-c4cccc5cccc(Cl)c45)ncc23)CCN1C(=O)/C=C/CN1CC[C@@H](F)C1 [Compound 96, 2-((S)-4-(7-(8-chloronaphthalen-1-yl)-8-fluoro-2-(((2R,7aS)-2-fluorohexahydro-1H-pyrrolizin-7a-yl)methoxy)pyrido[4,3-d]pyrimidin-4-yl)-1-((E)-4-((R)-3-fluoropyrrolidin-1-yl)but-2-enoyl)piperazin-2-yl)acetonitrile]	< 10 nM	< 10 nM	2.82	64.4 µg/mL (≈ 86.5 µM)
CC(C)(C)c1noc(/C=C/C(=O)N2CCN(c3nc(OC[C@@]45CCCN4C[C@H](F)C5)nc4c3CCN(c3cccc5cccc(Cl)c35)C4)C[C@@H]2CC#N)n1 [Compound 31]	10 to 100 nM	10 to 100 nM	4.35	0.01 µg/mL (≈ 0.0133 µM)
Cc1cc(/C=C/C(=O)N2CCN(c3nc(OC[C@@]45CCCN4C[C@H](F)C5)nc4c(F)c(-c5cccc6ccc(F)c(Cl)c56)ncc34)C[C@@H]2CC#N)nc(C)n1 [Example 89, 2-((S)-4-(7-(8-chloro-7-fluoronaphthalen-1-yl)-8-fluoro-2-(((2R,7aS)-2-fluorotetrahydro-1H-pyrrolizin-7a(5H)-yl)methoxy)pyrido[4,3-d]pyrimidin-4-yl)-1-((E)-3-(2,6-dimethylpyrimidin-4-yl)acryloyl)piperazin-2-yl)acetonitrile]	< 10 nM	< 10 nM	3.99	0.03 µg/mL (≈ 0.0391 µM)
